According to publication PMC9822194, “Chemoselective Synthesis of Mannich Adducts from 1,4-Naphthoquinones and Profile as Autophagic Inducers in Oral Squamous Cell Carcinoma” (Molecules, 2022):
Where two headings read alike, the source gives them in different places.

What was measured:
SCC-9 (OSCC cells) = assay: MTT cell viability assay (cytotoxicity), SCC9; type: cell-based, Human; details: for Selective Index (S.I.): IC50 normal oral fibroblasts/IC50 SCC-9
Experimental: (§1) Cells and reagents. Human SCC-4, SCC-9 and SCC-25 cells, derived from a human oral tongue SCC were obtained from the ATCC (CRL-1624; CRL-1629 and CRL-1628, respectively) and maintained at 1:1 DMEM/F12 (Dulbecco’s modified Eagle medium and Ham’s F12 medium; Gibco, Thermo Fisher, Waltham, MA, USA) supplemented with 10% (v/v) FBS (fetal bovine serum; Invitrogen, Thermo Fisher, Waltham, MA, USA) and 400 ng/mL hydrocortisone (Sigma-Aldrich Co., St. Louis, MO, USA). Primary normal human gingival fibroblasts were obtained from the ATCC (PCS-201-018), maintained in DMEM supplemented with 10% (v/v) FBS, and used in a maximum of 6 passages. Cells were grown in a humidified environment containing 5% CO2 at 37 °C. […] Carboplatin in water (Fauldcarbo®; Libbs Farmacêutica, São Paulo, SP, Brazil) was used as a standard anticancer compound.
(§2) Cell viability assay (cytotoxicity) and stability assay. To assess cell viability, cells were grown in triplicate in 96-well plates (5 × 10^3 cells/well) until confluence when treated with the different compounds as in Machado et al.. Briefly, DMSO in the same concentrations was used as a 100% cell viability control. After 48 h, cells were incubated with 5 mg/mL MTT reagent (3-(4,5-dimethyl-2-thiazolyl)-2,5-diphenyl-2H-tetrazolium bromide) (Sigma-Aldrich Co., St. Louis, MO, USA) for 3.5 h. Formazan crystals were dissolved in MTT solvent (DMSO/methanol 1:1 v/v) and the absorbance at 560 nm was evaluated using an EPOCH microplate spectrophotometer (BioTek Instruments, Winooski, VT, USA) with background absorbance at 670 nm subtracted. Each of the eighteen compounds was tested at six or seven different concentrations, ranging from 0.3 µM to 200 µM in cancer cell lines (SCC-4, SCC-9 and SCC-25) and 0.4 µM to 300 µM in normal primary human gingival fibroblast.
(§3) Statistical analysis, IC50 calculation. IC50 values for MTT assays were obtained by non-linear regression using the GraphPad Prism 5.0 software (GraphPad, San Diego, CA, USA) from at least three independent experiments. Data are presented as means ± SD. A dose-response (inhibitor) vs response curve using the least squares method was used to determine the IC50, SD and R2 of the data. The selectivity index was calculated as S.I. = IC50 of the compound in normal oral fibroblast cells/IC50 of the same compound for each oral cancer cell line (SCC-4, SCC-9 and SCC-25) and the mean was calculated when indicated.

[1] = system: normal human gingival fibroblasts; assay: MTT cell viability assay, normal fibroblasts; type: cell-based; details: 48 h
Experimental: as §1, §2, §3

SCC-25 cells = assay: MTT cell viability assay, SCC25; type: cell-based, Human; details: read-out: SCC25 IC50
Experimental: as §1, §2, §3

SCC-4 cells = assay: MTT cell viability assay, SCC4; type: cell-based, Human; details: read-out: SCC4 IC50
Experimental: as §1, §2, §3

[2] = system: OSCC cell lines (SCC 4, SCC-9 and SCC-25); assay: MTT assay, mean over three OSCC cell lines and average selectivity index; type: cell-based, Human; details: for Average S.I.: average selectivity index over SCC-4, SCC-9, SCC-25 vs normal fibroblasts; for IC50: read-out: Oral Tumor Cells Mean IC50
Experimental: as §2, §3

SCC9 cells [3] = assay: Stability test (pre-incubation at 37 °C, then MTT on SCC9); type: cell-based, Human; details: 2 × IC50 pre-incubated 0-48 h at 37 °C, then SCC9 48 h
Experimental: After the desired treatment time was reached, the medium containing the compound was replaced with untreated culture medium and the MTT assay was performed at the end of both experiments.

SCC9 cells [4] = assay: Clonogenic assay, SCC9; type: cell-based, Human; details: 2 × IC50, 5 days
Experimental: (§4) Clonogenic assay. The SCC9 strain and primary human fibroblasts were grown in duplicates in 24-well plates (5 × 10^4 cells/well) and incubated for 24 h. […] DMSO was used at the same concentrations as a control for 100% of viability. After 5 days of incubation, the culture medium was removed and the cells were fixed with absolute ethanol (500 µL) for 10 min, then stained with crystal 0.05% violet (Sigma Aldrich) in 20% ethanol (500 µL) for 10 min and washed with distilled water. The plates were scanned to quantify the inhibition of the formation of colonies. Then, crystal violet was solubilized in 33% acetic acid and added to the 96-well plate. Finally, the absorbance was read in a spectrophotometer (EPOCH, BioTek Instruments, Winooski, VT, USA) (595 nm).

[5] = system: primary human fibroblasts; assay: Clonogenic assay, primary human fibroblasts; type: cell-based; details: 2 × IC50, 5 days, normal fibroblasts
Experimental: as §4

SCC9 cells [6] = assay: MTT assay with cell death inhibitors (ZVAD, necrostatin-1, 3-MA); type: cell-based, Human; details: SCC9, 3-MA 5000 µM
Experimental: as §2, with “After 48 h, cells were incubated with 5 mg/mL MTT reagent (3-(4,5-dimethyl-2-thiazolyl)-2,5-diphenyl-2H-tetrazolium bromide) (Sigma-Aldrich Co., St.” left out

[7] = MTT, 48 h, Table 1, read-out: SCC9—Oral Cancer IC50
[8] = MTT, Table 1, read-out: Primary Gengival Fibroblast IC50
[9] = Homo sapiens, mean of SCC9, SCC25, SCC4
[10] = Homo sapiens, SCC-9, 48 h, read-out: SCC9 IC50
[11] = Homo sapiens, SCC-9, 48 h, read-out: SCC9—Oral Cancer IC50
[12] = Homo sapiens, Fibroblast, read-out: Primary Gengival Fibroblast IC50

Molecule	Selective Index (S.I.) (SCC-9 (OSCC cells))	IC50 (SCC-9 (OSCC cells); [7]) [µM]	IC50 [1, 8] [µM]	IC50 (SCC-25 cells; MTT, 48 h) [µM]	IC50 (SCC-4 cells; MTT, 48 h) [µM]	Average S.I. [2]	IC50 [2, 9] [µM]	Stability at 37 °C (retained cytotoxicity) (SCC9 cells [3])	IC50 (SCC-9 (OSCC cells); [10]) [µM]	IC50 (SCC-9 (OSCC cells); [11]) [µM]	IC50 [1, 12] [µM]	IC50 (SCC-25 cells; Homo sapiens, SCC-25, 48 h) [µM]	IC50 (SCC-4 cells; Homo sapiens, SCC-4, 48 h) [µM]	other results
Methyl benzyl((3-methyl-phenyl)(3-((methoxycarbonyl)oxy)-1,4-dioxo-1,4-dihydronaphthalen-2-yl)methyl)carbamate [6h]	4.83	11.1	53.7	56.6	98.4	1.29	–	–	–	–	–	–	–	IC50 ([1]; MTT, Table 2, read-out: Primary Gingival Fibroblast IC50): 53.7 µM
COc1cccc2c1C(=O)c1c(O)c3c(c(O)c1C2=O)C[C@@](O)(C(=O)CO)C[C@@H]3O[C@H]1C[C@H](N)[C@H](O)[C@H](C)O1 [Doxorubicin]	2.57	–	–	–	–	3.94	4.73	stable even after 48 h	–	–	–	–	–	IC50 (SCC-9 (OSCC cells); Homo sapiens, SCC-9, MTT, 48 h, Table 1, read-out: SCC9—Oral Cancer IC50): 7.2 µM; IC50 ([1]; Homo sapiens, Fibroblast, MTT, Table 1, read-out: Primary Gengival Fibroblast IC50): 18.7 µM; IC50 (SCC-25 cells; Homo sapiens, SCC-25, MTT, 48 h): 1.12 µM; IC50 (SCC-4 cells; Homo sapiens, SCC-4, MTT, 48 h): 5.87 µM
N.N.O=C([O-])C1(C(=O)[O-])CCC1.[Pt+2] [Carboplatin]	0.85	223	193	264	195	0.85	–	stable even after 48 h	–	–	–	–	–	Average S.I. ([2]; listed as carboplatin): 0.847; IC50 ([2]; mean of SCC9, SCC25, SCC4): 228 µM; Cytotoxicity in clonogenic assay (colony formation) (SCC9 cells [4]): high cytotoxicity; Cells viable and able to form colonies [5]: less than 50%
CC(C)=CC[C@@H](O)C1=CC(=O)c2c(O)ccc(O)c2C1=O [Shikonin, reference compound]	0.95	–	–	–	–	0.98	–	–	1.81	1.8	1.72	1.5	1.91	IC50 ([2]; Homo sapiens): 1.74 µM; Effect of autophagy inhibitor 3-MA on induced cell death (SCC9 cells [6]): reduced cell death
CC(C)=CCC1=C(O)C(=O)c2ccccc2C1=O [Lapachol, reference compound]	2.41	–	–	–	–	1.66	61.1	–	42.1	42.1	102	85.9	55.3	–
